# Reference: US7993884B2, “Beta-xylosidase for conversion of plant cell wall carbohydrates to simple sugars” (The United States of America as represented by the …, priority 2006, dated 2011)
# “And” between values parts separate entries of the source, which are not always exact repeats. Equal entries are not always repeated. Where two headings read alike, the source gives them in different places.
# B1: Selenomonas ruminantium GA192 β-D-xylosidase (SXA, parent SEQ ID NO: 2) variant D127A (Pseudoselenomonas ruminantium; D127A) (protein)
# chain: MNIQNPVLKGFNPDPSIVRAGDDYYIATSTFEWFPGVQIHHSKDLVHWHLVAHPLSTTEFLDMKGNPDSGGIWAPDLSYADGKFWLIYTDVKVVDGMWKDCHNYLTTAEDIKGPWSKPILLNGAGFAASLFHDPSGKKYLVNMYWDQRVYHHNFYGIALQEYSVAEEKLIGKPEIIYKGTDIAYTEGPHLYYINDMYYLMTAEGGTTYQHSETIARSKTIHGPYEIQPDYPLLSAWKEVHNPLQKCGHASLVETQNGQWYLAHLTGRPLPAPAGFPSREREQHAFCPLGRETAIQKIEWQDGWPVVVGGQQGSLEVEAPDLPQQEWAPTYEERDDFDKDTLNINFQTLRIPFSEHLGSLTARPGFLRLYGRESLQSKFTQAHIARRWQSFNFDAGTSVEFSPNSFQQMAGLTCYYNTENWSSIHVTWNEEKGRIIDLVTADNGTFSMPLAGAEIPIPDEVKTVHFKVSVRGRIYQYAYSFDGETFHTLPIELPSWKLSDDYVRGGGFFTGAFVGINAIDITGTALPADFDYFTYKELD
# Assays:
# [1] = target: T1, SXA (Selenomonas ruminantium, UniProt O52575); experiment: SXA-catalyzed hydrolysis of 4NP-glycoside substrates, initial rates (Methods A and B); assay type: biochemical; details: for Relative Rate: 5 mM 4NP glycoside, 100 mM succinate-NaOH, pH 5.3, 25° C., Method A, initial rate relative to 4NPX;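 on all read-outs here: initial rates from 4-nitrophenol release, tracked by absorbance over roughly 0.3 min and converted using product-minus-substrate extinction differences, in 1 mL mixtures started by enzyme addition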
# [2] = target: T2, Selenomonas ruminantium GA192 β-D-xylosidase (SXA), wild type, SEQ ID NO: 2 (Pseudoselenomonas ruminantium, UniProt O52575); experiment: Steady-state kinetics of SXA with 4NPX2, A2 and X2-X6 by HPLC (Example 1)
# [3] = target: T1, SXA; details: for Km: 100 mM succinate-NaOH, pH 5.3, 25° C. (Example 1)
# [4] = target: T2, Selenomonas ruminantium GA192 β-D-xylosidase (SXA), wild type, SEQ ID NO: 2; experiment: Steady-state kinetics of SXA with X2-X6, improved quenching, HPLC (Example 3); details: for factor by which kcat is higher than that of the Bacillus pumilus enzyme: SXA pH 5.3 vs B. pumilus pH 7.15, 25° C
# [5] = target: T1, SXA; details: for Km / kcat: 100 mM succinate-NaOH, improved quench (Example 3); for Km / kcat / kcat lower than previous determination (Example 1) / kcat/Km lower than previous determination (Example 1): pH 5.3, 25° C.; for factor by which kcat of SXA is higher than that of the Bacillus pumilus enzyme: SXA pH 5.3, 25° C. vs B. pumilus pH 7.15, 25° C.
# [6] = substrate: O=[N+]([O-])c1ccc(O[C@@H]2OC[C@@H](O)[C@H](O)[C@H]2O)cc1; experiment: purified protein, by the assay type; details: other: 100 mM succinate-NaOH, pH 5.3, 25° C, Method A
# [7] = 100 mM succinate-NaOH, pH 5.3, 25° C
# [8] = pH 5.3, 25° C (improved technique), approximate
# [9] = hydrolysis of X6, pH 5.30, 25° C.
# [10] = pH 5.3, 25° C (Example 1), approximate
molecule,measurement,setting,value
O=[N+]([O-])c1ccc(O[C@H]2O[C@H](CO)[C@@H](O)[C@H](O)[C@H]2O)cc1 [4-Nitrophenyl-α D-glucopyranoside],Relative Rate,[1],<10^−6
O=[N+]([O-])c1ccc(O[C@H]2O[C@H](CO)[C@H](O)[C@H](O)[C@H]2O)cc1 [4-Nitrophenyl-α-D-galactopyranoside],Relative Rate,[1],<10^−6
O=[N+]([O-])c1ccc(O[C@H]2O[C@H](CO)[C@@H](O)[C@H](O)[C@@H]2O)cc1 [4-Nitrophenyl-α-D-mannopyranoside],Relative Rate,[1],<10^−6
O=[N+]([O-])c1ccc(O[C@H]2OC[C@@H](O)[C@H](O)[C@H]2O)cc1 [4-Nitrophenyl-α-D-xylopyranoside],Relative Rate,[1],<10^−6
O=[N+]([O-])c1ccc(O[C@@H]2OC[C@H](O)[C@H](O)[C@H]2O)cc1 [4-Nitrophenyl-α-L-arabinopyranoside],Relative Rate,[1],<10^−6
C[C@@H]1O[C@@H](Oc2ccc([N+](=O)[O-])cc2)[C@@H](O)[C@H](O)[C@@H]1O [4-Nitrophenyl-α-L-fucopyranoside],Relative Rate,[1],<10^−6
C[C@@H]1O[C@@H](Oc2ccc([N+](=O)[O-])cc2)[C@H](O)[C@H](O)[C@H]1O [4-Nitrophenyl-α-L-rhamnopyranoside],Relative Rate,[1],<10^−6
C[C@H]1O[C@@H](Oc2ccc([N+](=O)[O-])cc2)[C@H](O)[C@@H](O)[C@H]1O [4-Nitrophenyl-β-D-fucopyranoside],Relative Rate,[1],<10^−6
O=[N+]([O-])c1ccc(O[C@@H]2O[C@H](CO)[C@H](O)[C@H](O)[C@H]2O)cc1 [4-Nitrophenyl-β-D-galactopyranoside],Relative Rate,[1],<10^−6
O=[N+]([O-])c1ccc(O[C@@H]2O[C@H](CO)[C@@H](O)[C@H](O)[C@H]2O)cc1 [4-Nitrophenyl-β-D-glucopyranoside],Relative Rate,[1],<10^−6
O=[N+]([O-])c1ccc(O[C@@H]2O[C@H](CO)[C@@H](O)[C@H](O)[C@@H]2O)cc1 [4-Nitrophenyl-β-D-mannopyranoside],Relative Rate,[1],<10^−6
O=[N+]([O-])c1ccc(O[C@H]2OC[C@H](O)[C@H](O)[C@H]2O)cc1 [4-Nitrophenyl-β-L-arabinopyranoside],Relative Rate,[1],<10^−6
same,"rate relative to that of 4NPX, first inspection","[1]; reaction conditions of Table 2, later attributed to a contaminant",less than 0.1%
C[C@@H]1O[C@H](Oc2ccc([N+](=O)[O-])cc2)[C@@H](O)[C@H](O)[C@@H]1O [4-Nitrophenyl-β-fucopyranoside],Relative Rate,[1],<10^−6
"OC[C@@H]1O[C@@H](OC[C@@H]2OC(O)[C@H](O)[C@H]2O)[C@H](O)[C@H]1O (stereo partly drawn) [A2, 1,5-α-L-arabinobiose]",factor by which kcat is reduced vs X2,[2],5600 fold
same,kcat,[2]; [7],0.074 ± 0.003 s⁻¹
same,kcat factor between 4NPA and A2,[2]; 4NPA larger / A2 reduced,36 fold
same,relative kcat value,"[2]; pH 5.3, 25° C, A2 = 1",1
same,Km,[3],1200 ± 100 µM
same,factor by which kcat is reduced in comparison to 4NPA,"[3]; pH 5.3, 25° C.",36
same,factor by which kcat is reduced in comparison to X2,"[3]; pH 5.3, 25° C.",5600
same,relative kcat values,"[3]; pH 5.3 and 25° C., relative to A2",1
"OC1OC[C@@H](O[C@@H]2OC[C@@H](O[C@@H]3OC[C@@H](O)[C@H](O)[C@H]3O)[C@H](O)[C@H]2O)[C@H](O)[C@H]1O (stereo partly drawn) [X3, 1,4-β-D-xylotriose]",kcat,[4]; [7],95.1 ± 1.5 s⁻¹
same,factor by which kcat is higher than that of the Bacillus pumilus enzyme,[4],32
same,"affinity of dianionic SXA (D14^−E186^−), lower than that of monoanionic SXA (D14^−E186^H)",[4]; from pH dependence of 1/Km,3.1 fold and 3 fold
same,kcat,[4]; [8],approximately 95.1 sec^−1
same,pH-independent kcat,"[4]; pH profile, I=0.3 M, 25° C",98.0±2.3
same,kcat,[2]; [7],172 s⁻¹ and 172 ± 14 s⁻¹
same,pH-independent kcat,[5],98.0±2.3
same,Km,[5],2120 ± 100 µM
same,kcat,[5],approximately 95.1 s^−1
same,pKa1 of kcat versus pH,"[5]; Eq. 6, I=0.3 M, 25° C.",3.21
same,pKa1 of kcat/Km versus pH,"[5]; Eq. 6, I=0.3 M, 25° C.",4.80±0.06
same,pKa2 of kcat versus pH,"[5]; Eq. 6, I=0.3 M, 25° C.",7.53±0.06
same,pKa2 of kcat/Km versus pH,"[5]; Eq. 6, I=0.3 M, 25° C.",7.30±0.04
same,pKa1 of kcat versus pH,"[5]; Eq. 6, I=0.3 M, 25° C., listed as 1,4-β-D-xylotriose",3.21±0.27
same,pKa1 of 1/Km versus pH,"[5]; Eq. 7, I=0.3 M, 25° C.",4.76±0.05
same,pKa2 of 1/Km versus pH,"[5]; Eq. 7, I=0.3 M, 25° C.",7.76±0.14
same,factor by which kcat of SXA is higher than that of the Bacillus pumilus enzyme,[5],32
same,lower affinity of dianionic SXA (D14^−E186^−) than monoanionic SXA (D14^−E186^H),[5]; from pH dependencies of 1/Km,3.1 fold and 3 fold
same,pH-independent kcat/Km,"[5]; kcat/Km versus pH, Eq. 6, I=0.3 M, 25° C. (FIG. 20)",58.9±3.3 mM^−1s^−1
same,kcat lower than previous determination (Example 1),[5],45%
same,kcat/Km lower than previous determination (Example 1),[5],1%
same,Km,[3],3800 µM
same,"time of peak height of intermediate product, observed","[3]; hydrolysis of X4, pH 5.30, 25° C.",4130 s
same,"time of peak height of intermediate product, observed",[3]; [9],10822 s
"OC1OC[C@@H](O[C@@H]2OC[C@@H](O[C@@H]3OC[C@@H](O[C@@H]4OC[C@@H](O)[C@H](O)[C@H]4O)[C@H](O)[C@H]3O)[C@H](O)[C@H]2O)[C@H](O)[C@H]1O (stereo partly drawn) [X4, 1,4-β-D-xylotetraose]",kcat,[4]; [7],91.6 ± 2.3 s⁻¹
same,factor by which kcat is higher than that of the Bacillus pumilus enzyme,[4],31
same,kcat,[4]; [8],approximately 91.6 sec^−1
same,kcat,[2]; [7],150 s⁻¹ and 150 ± 5 s⁻¹
same,kcat,[2]; [10],approximately 150 sec^−1
same,Km,[5],2750 ± 230 µM
same,kcat,[5],approximately 91.6 s^−1
same,factor by which kcat of SXA is higher than that of the Bacillus pumilus enzyme,[5],31
same,kcat lower than previous determination (Example 1),[5],39%
same,kcat/Km lower than previous determination (Example 1),[5],12%
same,Km,[3],4000 µM
same,"time of peak height of intermediate product, observed",[3]; [9],8260 s
"OC1OC[C@@H](O[C@@H]2OC[C@@H](O[C@@H]3OC[C@@H](O[C@@H]4OC[C@@H](O[C@@H]5OC[C@@H](O)[C@H](O)[C@H]5O)[C@H](O)[C@H]4O)[C@H](O)[C@H]3O)[C@H](O)[C@H]2O)[C@H](O)[C@H]1O (stereo partly drawn) [X5, 1,4-β-D-xylopentaose]",kcat,[4]; [7],77.2 ± 3.6 s⁻¹
same,factor by which kcat is higher than that of the Bacillus pumilus enzyme,[4],20
same,kcat,[4]; [8],approximately 77.2 sec^−1
same,kcat,[2]; [7],150 s⁻¹ and 150 ± 15 s⁻¹
same,kcat,[2]; [10],approximately 150 sec^−1
same,Km,[5],2860 ± 380 µM
same,kcat,[5],approximately 77.2 s^−1
same,factor by which kcat of SXA is higher than that of the Bacillus pumilus enzyme,[5],20
same,kcat lower than previous determination (Example 1),[5],49%
same,kcat/Km lower than previous determination (Example 1),[5],34%
same,Km,[3],3700 µM
same,"time of peak height of intermediate product, observed",[3]; [9],3138 s
"OC1OC[C@@H](O[C@@H]2OC[C@@H](O[C@@H]3OC[C@@H](O[C@@H]4OC[C@@H](O[C@@H]5OC[C@@H](O[C@@H]6OC[C@@H](O)[C@H](O)[C@H]6O)[C@H](O)[C@H]5O)[C@H](O)[C@H]4O)[C@H](O)[C@H]3O)[C@H](O)[C@H]2O)[C@H](O)[C@H]1O (stereo partly drawn) [X6, 1,4-β-D-xylohexaose]",kcat,[4]; [7],81.5 ± 2.0 s⁻¹
same,factor by which kcat is higher than that of the Bacillus pumilus enzyme,[4],27
same,kcat,[4]; [8],approximately 81.5 sec^−1
same,kcat,[2]; [7],96 s⁻¹ and 96 ± 7 s⁻¹
same,Km,[5],3120 ± 210 µM
same,kcat,[5],approximately 81.5 s^−1
same,factor by which kcat of SXA is higher than that of the Bacillus pumilus enzyme,[5],27
same,kcat lower than previous determination (Example 1),[5],15%
same,kcat/Km lower than previous determination (Example 1),[5],25%
same,Km,[3],2700 µM
B1,Km,[6],881 ± 59 µM
